Measured values: ChEMBL document CHEMBL5257145, “1,2,4-Triazine Derivatives as NLRP3 Inhibitors for Treating Diseases” (ACS Med Chem Lett, 2023)
pIC50: −log10 of the molar value.

Molecular target: NACHT, LRR and PYD domains-containing protein 3 (Homo sapiens, UniProt Q96P20)
Experiment: Inhibition of NLRP3 inflammasome activation in PMA-differentiated human THP-1 cells assessed as reduction in IL-1beta secretion preincubated for 20 hrs followed by nigericin addition and measured after 3 hrs by HTRF assay
Type: cell-based

Sequence of NACHT, LRR and PYD domains-containing protein 3 (Q96P20 whole entry, the tested form may be a part): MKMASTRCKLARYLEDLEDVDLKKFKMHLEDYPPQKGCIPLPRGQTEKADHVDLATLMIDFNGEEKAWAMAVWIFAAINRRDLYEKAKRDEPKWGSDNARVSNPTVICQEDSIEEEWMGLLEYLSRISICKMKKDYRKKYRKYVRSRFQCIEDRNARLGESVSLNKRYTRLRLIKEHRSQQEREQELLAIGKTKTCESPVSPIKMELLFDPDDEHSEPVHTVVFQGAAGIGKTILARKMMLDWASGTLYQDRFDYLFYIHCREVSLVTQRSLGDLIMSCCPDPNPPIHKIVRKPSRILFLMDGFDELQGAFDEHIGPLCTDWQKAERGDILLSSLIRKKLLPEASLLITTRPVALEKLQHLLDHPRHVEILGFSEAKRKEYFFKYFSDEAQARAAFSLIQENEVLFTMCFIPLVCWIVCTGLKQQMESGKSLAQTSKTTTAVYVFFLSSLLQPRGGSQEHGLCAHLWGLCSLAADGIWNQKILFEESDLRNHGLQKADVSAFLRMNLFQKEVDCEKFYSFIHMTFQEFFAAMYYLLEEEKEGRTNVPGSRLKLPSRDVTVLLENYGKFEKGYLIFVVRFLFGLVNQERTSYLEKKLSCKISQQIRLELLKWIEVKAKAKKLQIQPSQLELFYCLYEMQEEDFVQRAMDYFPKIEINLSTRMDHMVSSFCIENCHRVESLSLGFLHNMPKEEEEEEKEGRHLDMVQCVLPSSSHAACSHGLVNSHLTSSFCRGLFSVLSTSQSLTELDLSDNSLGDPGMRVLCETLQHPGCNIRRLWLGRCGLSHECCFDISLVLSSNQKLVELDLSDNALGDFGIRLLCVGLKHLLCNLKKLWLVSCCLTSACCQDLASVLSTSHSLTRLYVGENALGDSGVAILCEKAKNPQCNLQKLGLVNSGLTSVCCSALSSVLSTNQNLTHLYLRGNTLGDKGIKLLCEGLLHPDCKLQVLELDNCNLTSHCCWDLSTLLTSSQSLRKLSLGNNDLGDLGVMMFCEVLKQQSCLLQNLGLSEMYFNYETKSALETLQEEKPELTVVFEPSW

Row | Compound | pIC50
1 | Cc1cc(O)c(-c2nnc(N[C@@H]3CCCN(C)C3)nc2C)c(F)c1 | > 9.00
2 | Cc1nc(N[C@@H]2CCCN(C)C2)nnc1-c1ccc(Cl)cc1O | > 9.00
3 | COc1ccc(-c2nnc(N[C@@H]3CCCN(C)C3)nc2C)c(O)c1 | > 9.00
4 | Cc1nc(N[C@@H]2CCCN(C)C2)nnc1-c1ccc(C(F)(F)F)cc1O | > 9.00
5 | COc1cc(O)c(-c2nnc(N[C@@H]3CCCN(C)C3)nc2C)c(F)c1 | > 9.00
6 | Cc1nc(N[C@@H]2CCCN(C)C2)nnc1-c1ccc(C2CC2)cc1O | > 9.00
